Reference: PubChem BioAssay (NCI)
Where “and” joins values, the source holds several entries; their conditions need not be identical. Identical values can stand only once.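 Method: 48-hour compound exposure of cells in 96-well plates, five concentrations, linear interpolation of endpoints. GI50 is the concentration that inhibits growth by half. TGI: concentration producing complete growth inhibition.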

Legend:
Assay in all cases: inhibition of tumour cell growth, NCI panel, 48 h
[1] = test system: CAKI-1 renal
[2] = test system: SF-295 CNS
[3] = test system: SK-MEL-2 melanoma
[4] = test system: SK-OV-3 ovarian
[5] = test system: NCI-H23 lung
[6] = test system: HCT-15 colon
[7] = test system: SF-268 CNS
[8] = test system: MDA-MB-231 breast
[9] = test system: UACC-257 melanoma
[10] = test system: NCI-H460 lung
[11] = test system: K-562 leukemia
[12] = test system: 786-0 renal
[13] = test system: M14 melanoma
[14] = test system: IGROV1 ovarian
[15] = test system: MDA-MB-435
[16] = test system: UACC-62 melanoma
[17] = test system: SR leukemia
[18] = test system: OVCAR-5 ovarian
[19] = test system: TK-10 renal
[20] = test system: KM12 colon
[21] = test system: BT-549 breast
[22] = test system: DU-145 prostate
[23] = test system: MCF7 breast
[24] = test system: SK-MEL-5 melanoma
[25] = test system: SK-MEL-28 melanoma
[26] = test system: COLO 205 colon
[27] = test system: LOX IMVI melanoma
[28] = test system: CCRF-CEM leukemia
[29] = test system: RPMI-8226 leukemia
[30] = test system: A498 renal
[31] = test system: HCT-116 colon
[32] = test system: A549 NSCLC
[33] = test system: MOLT-4 leukemia
[34] = test system: UO-31 renal
[35] = test system: PC-3 prostate
[36] = test system: HOP-92 NSCLC
[37] = test system: NCI-H226 lung
[38] = test system: RXF 393 renal
[39] = test system: U251 CNS
[40] = test system: NCI/ADR-RES ovarian
[41] = test system: T-47D breast
[42] = test system: HT29 colon
[43] = test system: HS 578T breast
[44] = test system: NCI-H522 lung
[45] = test system: SN12C renal
[46] = test system: HCC-2998 colon
[47] = test system: OVCAR-3 ovarian
[48] = test system: ACHN renal
[49] = test system: SF-539 CNS
[50] = test system: SW-620 colon
[51] = test system: MALME-3M melanoma
[52] = test system: SNB-19 CNS
[53] = test system: SNB-75 CNS
[54] = test system: EKVX NSCLC
[55] = test system: HOP-62 NSCLC
[56] = test system: HL-60(TB) leukemia
[57] = test system: OVCAR-8 ovarian
[58] = test system: OVCAR-4 ovarian

COc1ccc(-c2ccc3ncc4c(c3c2)n(-c2ccc(N3CCNCC3)c(C(F)(F)F)c2)c(=O)n4C)cn1
GI50 [1]: 17.9 nM and 11.9 nM
TGI [1]: 884 nM and 118 nM
GI50 [2]: < 10 nM and 3.31 nM
TGI [2]: 28.4 nM and 32 nM
GI50 [3]: < 10 nM and 10.1 nM
TGI [3]: 36.9 nM and 44 nM
GI50 [4]: < 10 nM and 6 nM
TGI [4]: 18.3 nM and 46.2 nM
GI50 [5]: < 13.1 nM and 15.6 nM
TGI [5]: 424 nM and 439 nM
GI50 [6]: < 10.4 nM and 12.7 nM
TGI [6]: 137 nM and 186 nM
GI50 [7]: < 10 nM and 8.67 nM
TGI [7]: 755 nM and 1220 nM
GI50 [8]: < 10 nM and 6.01 nM
TGI [8]: 823 nM and 446 nM
GI50 [9]: 16.9 nM and 21 nM
TGI [9]: 110 nM and 118 nM
GI50 [10]: < 10 nM and 3.89 nM
TGI [10]: 223 nM and 141 nM
GI50 [11]: 8.43 nM
TGI [11]: 204 nM
GI50 [12]: < 10 nM and 3.25 nM
TGI [12]: 111 nM and 107 nM
GI50 [13]: 4.55 nM
TGI [13]: 62.1 nM
GI50 [14]: < 10 nM and 1.6 nM
TGI [14]: 33.2 nM and 16.2 nM
GI50 [15]: < 10 nM and 2.72 nM
TGI [15]: 73.2 nM and 106 nM
GI50 [16]: < 10 nM and 5.99 nM
TGI [16]: 26.9 nM and 28.6 nM
GI50 [17]: 20 nM and 6.81 nM
TGI [17]: 266 nM and 365 nM
GI50 [18]: < 11.5 nM and 7.52 nM
GI50 [19]: < 10 nM and 8.65 nM
TGI [19]: 37.9 nM and 109 nM
GI50 [20]: < 10 nM and 11.7 nM
TGI [20]: 694 nM and 406 nM
GI50 [21]: < 10 nM and 5.52 nM
TGI [21]: 55.6 nM and 64.7 nM
GI50 [22]: < 10 nM and 4.75 nM
TGI [22]: 686 nM and 433 nM
GI50 [23]: 3.5 nM
TGI [23]: 79.3 nM
GI50 [24]: 13.1 nM and 10.2 nM
TGI [24]: 77.4 nM and 38 nM
GI50 [25]: < 10 nM and 6.79 nM
TGI [25]: 101 nM and 64.8 nM
GI50 [26]: < 10 nM and 9.94 nM
GI50 [27]: < 10 nM and 4.03 nM
TGI [27]: 359 nM and 88.2 nM
GI50 [28]: < 10 nM and 6.64 nM
TGI [28]: 282 nM and 144 nM
GI50 [29]: < 10 nM and 3.74 nM
TGI [29]: 163 nM and 54.9 nM
GI50 [30]: < 10 nM and 2.24 nM
TGI [30]: < 10 nM and 12 nM
GI50 [31]: < 14.3 nM and 8.53 nM
TGI [31]: 165 nM and 142 nM
GI50 [32]: < 10 nM and 6.07 nM
TGI [32]: 153 nM and 329 nM
GI50 [33]: < 10 nM and 6.54 nM
TGI [33]: 186 nM and 143 nM
GI50 [34]: < 10 nM and 4.17 nM
TGI [34]: 196 nM and 26.9 nM
GI50 [35]: < 10 nM and 2.81 nM
TGI [35]: 799 nM and 1120 nM
GI50 [36]: < 10 nM and 1.46 nM
TGI [36]: 21.9 nM and 15.5 nM
GI50 [37]: 8.58 nM
TGI [37]: 116 nM
GI50 [38]: < 10 nM and 1.8 nM
TGI [38]: < 32.3 nM and 9.77 nM
GI50 [39]: < 10 nM and 8.69 nM
TGI [39]: 130 nM and 429 nM
GI50 [40]: 53.1 nM and 59.5 nM
TGI [40]: 1270 nM and 712 nM
GI50 [41]: < 10 nM and 1.89 nM
TGI [41]: < 10 nM and 21 nM
GI50 [42]: < 10 nM and 6.58 nM
TGI [42]: 122 nM and 393 nM
GI50 [43]: < 10 nM and 1.97 nM
TGI [43]: 18.1 nM and 13 nM
GI50 [44]: < 10 nM and 6.69 nM
TGI [44]: 1070 nM and 379 nM
GI50 [45]: < 11.2 nM and 3.82 nM
TGI [45]: 1560 nM and 381 nM
GI50 [46]: < 10 nM and 6.75 nM
TGI [46]: 1340 nM and 269 nM
GI50 [47]: < 10 nM and 5.96 nM
TGI [47]: 341 nM and 497 nM
GI50 [48]: < 10 nM and 9.59 nM
TGI [48]: 1100 nM and 782 nM
GI50 [49]: < 11 nM and 13.2 nM
TGI [49]: 60.6 nM and 58.7 nM
GI50 [50]: 10.3 nM and 11.7 nM
TGI [50]: 131 nM and 132 nM
GI50 [51]: < 10 nM and 4.04 nM
TGI [51]: 30 nM and 35.3 nM
GI50 [52]: < 10 nM and 7.78 nM
TGI [52]: 1200 nM and 254 nM
GI50 [53]: < 10 nM and 2.63 nM
TGI [53]: 12.9 nM and 25.5 nM
GI50 [54]: < 10 nM and 4.26 nM
TGI [54]: 37.9 nM and 258 nM
GI50 [55]: < 10 nM and 11.9 nM
TGI [55]: 378 nM and 428 nM
GI50 [56]: 14.3 nM
TGI [56]: 113 nM
GI50 [57]: < 10 nM and 9.48 nM
TGI [57]: 332 nM and 396 nM
GI50 [58]: < 10 nM and 2.9 nM
TGI [58]: 20.7 nM and 25.2 nM
